Data as given in patent publication EP0126287B1, “Fluorinated compounds having analgesic and antiinflammatory activities” (MEDEA RESEARCH S.r.l., priority 1983, dated 1984).
Read-outs that look alike come from different tables or passages of the source.

What was measured:
[1] = test system: writhing induced by phenylquinone administration in Swiss rats; test: Phenylquinone writhing test, analgesic activity; format: in vivo; conditions: for No. WRITHINGS M̄ ± ES: control 24.5 ±2.2
Procedure: The analgesic activity of the compounds of the invention was determined according to the writhing test, as inhibitory activity against the writhing induced by phenylquinone administration in Swiss rats (Siegmund et al., Proc. Soc. Exp. Biol. Med. 95, 729, 1957). The analgesic activity of MR 883 was determined in comparison to the one of Diflunisal and Naproxen.

[2] = Acute toxicology: indicative LD50 in the rat; conditions: in vivo, ip
[3] = Qualitative solubility of the isolated product; format: physicochemical; conditions: for solubility in bicarbonate solutions: bicarbonate solution
[4] = test system: carrageenin oedema in the rat paw; test: Carrageenin oedema test (rat paw), antiinflammatory activity; format: in vivo; conditions: for Inhibition versus control / AREAS % M ± ES: 50 mg/kg p.o., 10 rats per group; for Inhibition versus control: oedema areas; for AREAS % M ± ES: control 305 ±23.7; for ED50: Rattus norvegicus, carrageenin oedema, oral, groups of 10 rats, dosages of 25.50 and 100 mg/kg
Procedure: The antiinflammatory activity of the compounds of the invention was determined according to the carrageenin oedema test in rats, in comparison with equiponderal dosages of Diflunisal (Rissly, Ness.; Proc. Soc. Exp. Biol. Med., 111, 544-547, 1962).
ED50 of MR 883 and Diflunisal were determined according to the same test. Groups of 10 rats were administered orally with the compounds at dosages of 25.50 and 100 mg/kg.

[5] = test system: writhing induced by acetic acid in the rat; test: Inhibition of writhing induced by acetic acid, analgesic ED50; format: in vivo; conditions: po
Procedure: The ED50 in the analgesic activity of MR 883, in comparison to Diflunisal, D-prppoxyphene, phenylbutazone and acetylsalicylic acid was determined according to the test of inhibition of writhing induced by acetic acid in the rat (Sofia et al., J. Pharmacol. Expt. Therap. 186, 646, 1973).

rat = conditions: cited from earlier work
[6] = dose 50 mg/kg, 10 animals per group
[7] = acetic acid writhing in the rat, per os, read-out: ED50

SMILES	% Inhibition versus control ([1]; dose 50 mg/kg)	No. WRITHINGS M̄ ± ES [1, 6]	LD50 [2]	solubility in the usual organic solvents [3]	Inhibition versus control [4]	AREAS % M ± ES [4]	ED50 [5, 7]	further results
CCOC(C(=O)O)c1ccc(-c2ccc(F)cc2F)cc1 (centres unmarked) [MR 936, 2-Ethoxy-2-[p-(2",4"-difluorophenyl)phenyl]acetic acid]	76.7%	5.7 ±0.8	1800 mg/kg	soluble	45.8%	139.7 ±15.2		solubility in bicarbonate solutions [3]: soluble
O=C(O)C(O)c1ccc(-c2ccc(F)cc2F)cc1 (centres unmarked) [MR 864, 2-Hydroxy-2-[p-(2",4"-difluorophenyl)phenyl]acetic acid]	85%	3.6 ±1.2	850 mg/kg		42.7%	174.7 ±20.7		solubility in cyclohexane and petroleum ether ([3]; cyclohexane, petroleum ether): soluble; solubility in toluene, chloroform, carbon tetrachloride ([3]; toluene, chloroform, carbon tetrachloride): slightly soluble; solubility in water [3]: soluble
COC(C(=O)O)c1ccc(-c2ccc(F)cc2F)cc1 (centres unmarked) [MR 883, 2-Methoxy-2-[p-(2^1,4"-difluorophenyl)phenyl]acetic acid]	98%		2200 mg/kg	soluble	52.8%	144.0 ±17.5	25 mg/kg	ED50 [4]: 145 mg/kg
COc1ccc2cc([C@H](C)C(=O)O)ccc2c1 [Naproxen, reference compound]								% Inhibition versus control ([1]; dose 100 mg/kg): 84%; No. WRITHINGS M̄ ± ES ([1]; dose 100 mg/kg, 10 animals): 4.0 ±1.1
CC(=O)Oc1ccccc1C(=O)O [Acetylsalicylic acid]								ED50 ([5]; Rattus norvegicus): 330 mg/kg
O=C(O)c1cc(-c2ccc(F)cc2F)ccc1O [Diflunisal, reference compound]	82%	4.3 ±1.6			59.6%	123.3 ±10.1	45 mg/kg	LD50 p.o. (rat): about 750 mg/kg; ED50 [4]: 234 mg/kg
CCC(=O)O[C@](Cc1ccccc1)(c1ccccc1)[C@H](C)CN(C)C [D-propoxyphene]								ED50 ([5]; Rattus norvegicus): 40 mg/kg
CCCCC1C(=O)N(c2ccccc2)N(c2ccccc2)C1=O [Phenylbutazone]							180 mg/kg	
O=C(O)C(Cl)c1ccc(-c2ccc(F)cc2F)cc1 (centres unmarked) [MR 881, 2-Chloro-2-[p-(2",4"-difluorophenyl)phenyl]acetic acid]	95%		850 mg/kg	soluble	48.6%	156.8 ±13.1		solubility in bicarbonate solutions [3]: soluble; solubility in water [3]: insoluble
